We go through six compounds from patent US7977466B2, “C-glycoside derivatives and salts thereof” (Astellas Pharma Inc., priority 2003, dated 2011).

The target in one test is T1, human SGLT2 (Homo sapiens, UniProt P31639).
T1 construct: expressed in transfected cells; host or cells: CHO-K1
T1 sequence (P31639 1-672): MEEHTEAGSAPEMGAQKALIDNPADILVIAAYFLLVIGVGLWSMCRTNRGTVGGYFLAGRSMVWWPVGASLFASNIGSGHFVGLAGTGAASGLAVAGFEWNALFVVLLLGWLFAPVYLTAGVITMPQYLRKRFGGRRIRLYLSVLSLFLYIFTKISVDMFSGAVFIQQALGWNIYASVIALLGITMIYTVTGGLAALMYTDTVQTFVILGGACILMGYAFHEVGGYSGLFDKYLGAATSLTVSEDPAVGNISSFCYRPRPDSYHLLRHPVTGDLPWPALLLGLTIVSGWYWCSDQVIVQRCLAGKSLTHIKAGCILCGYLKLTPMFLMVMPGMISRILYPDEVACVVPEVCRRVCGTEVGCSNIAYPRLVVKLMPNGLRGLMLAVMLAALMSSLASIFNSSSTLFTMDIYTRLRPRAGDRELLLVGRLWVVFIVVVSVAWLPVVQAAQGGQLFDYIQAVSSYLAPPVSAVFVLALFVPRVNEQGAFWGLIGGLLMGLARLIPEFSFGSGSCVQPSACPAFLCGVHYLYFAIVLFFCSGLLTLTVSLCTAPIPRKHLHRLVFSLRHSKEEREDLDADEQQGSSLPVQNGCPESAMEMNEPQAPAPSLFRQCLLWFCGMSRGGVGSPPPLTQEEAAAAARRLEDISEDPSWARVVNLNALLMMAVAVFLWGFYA
Put plainly: Inhibition of human Na+-glucose cotransporter (human SGLT2) activity: methyl-α-D-glucopyranoside intake in CHO cells stably expressing human SGLT2. Format: cell-based. The conditions noted are these: CHO cell stably expressing human SGLT2; methyl-α-D-(U-14C)glucopyranoside intake, 37° C., two hours. The source says: Inhibition of Human Na^+-Glucose Cotransporter (Human SGLT2) Activity
(1) Preparation of Human SGLT 2 Expression Vector
First, single-strand cDNA was reversely transcripted from total RNA originating from the human kidney (manufactured by BD Biosciences Clontech) using a Superscript II (manufactured by Invitrogen Corporation) and a random hexamer. Second, using the cDNA as a template, a DNA fragment encoding a human SGLT2 (Wells, R. G. et al., Am. J. Physiol., 1992, 263(3) F459) was amplified by the PCR reaction using Pyrobest DNA polymerase (manufactured by Takara Bio Inc.). That is, a Hind III site and an EcoRI site were inserted into the 5′ side and the 3′ side of the DNA fragment, respectively by using primers.
The amplified fragment was cloned into a pCR2.1-Topo vector using a Topo TA Cloning Kit (manufactured by Invitrogen Corporation) and the cloned vector was transfected into a competent cell of Escherichia coli JM109. Ampicillin-resistant clones were cultured in a LB medium containing ampicillin (100 mg/l). A plasmid was purified from the cultured Escherichia coli using the method of Hanahan (see Maniatis et al., “Molecular Cloning”). A DNA fragment for encoding a human SGLT2 was obtained by the Hind III/EcoRI digestion of the plasmid and ligated and cloned to the same site of the expression vector pcDNA 3.1 (manufactured by Invitrogen Corporation) using a DNA ligase (manufactured by Roche Diagnostics). The ligated clone was transfected into a competent cell of Escherichia coli JM109 in the same manner as described above and cultured in a LB medium containing ampicillin, and a human SGLT2 expression vector was obtained using the method of Hanahan.
(2) Preparation of Human SGLT2 Expressed Cells
The human SGLT2 expression vector was transfected into a CHO-K1 cell using Lipofectamine2000 (manufactured by Invitrogen Corporation). The cell was cultured in a Ham's F12 medium (manufactured by Nissui Pharmaceutical Co., Ltd.) containing penicillin (50 IU/ml, manufactured by Dainippon Pharmaceutical Co., Ltd.), streptomycin (50 μg/ml, manufactured by Dainippon Pharmaceutical Co., Ltd.), Geneticin (40 μg/ml, manufactured by Invitrogen Corporation), and 10% fetal bovine serum in the presence of 5% CO2 at 37° C. for two weeks, and Geneticin-resistant clones were obtained.
(3) Inhibition of methyl-α-D-glucopyranoside Intake
After removing the medium of a CHO cell which stably expresses the human SGLT2, a pretreatment buffer solution (buffer solution of pH 7.4 containing choline chloride (140 mM), potassium chloride (2 mM), calcium chloride (1 mM), magnesium chloride (1 mM), 2-[4-(2-hydroxyethyl)1-piperazinyl]ethanesulfonic acid (10 mM), and tris(hydroxymethyl)aminomethane (5 mM)) was added in the amount of 100 μl per well, and incubated at 37° C. for 20 minutes.
11 μl of methyl-α-D-(U-14C)glucopyranoside (manufactured by Amersham Pharmacia Biotech) was mixed with 1,000 μl of a buffer solution for intake containing a test compound (buffer solution of pH 7.4 containing sodium chloride (140 mM), potassium chloride (2 mM), calcium chloride (1 mM), magnesium chloride (1 mM), methyl-α-D-glucopyranoside (50 μM), 2-[4-(2-hydroxy ethyl)1-piperazinyl]ethanesulfonic acid (10 mM), and tris(hydroxymethyl)aminomethane (5 mM)) to prepare a buffer solution for intake. A buffer solution for intake without a test compound was prepared for a control group. A buffer solution for basal intake without a test compound containing choline chloride (140 mM) instead of sodium chloride for measuring the basal intake was prepared as well.
After removing the pretreatment buffer solution, the buffer solution for intake was added (25 μl per well) and incubated at 37° C. for two hours. […]

Test [1] relates to blood glucose of KK-A^y mice. Put plainly: Hypoglycemic activity confirmation test in fed KK-Ay mice. The conditions noted are these: fed male KK-A^y mice, oral, suspension 1 mg/10 ml in 0.5% methylcellulose at 10 ml/kg. Format: in vivo, mouse. On the procedure: Hypoglycemic Activity Confirmation Test
Fed KK-A^y mice (CLEA Japan, Inc., male) were used. The test compound was suspended in 0.5% methylcellulose solution to a concentration of 1 mg/10 ml. The weight of each mouse was measured. The test compound suspension was orally administered to the mice at a dose of 10 ml/kg. Only 0.5% methylcellulose solution was administered to the mice of a control group. Each group consisted of six mice. Blood was collected from the tail vein immediately before administering the compound and one, two, four, and eight hours after administering the compound. The blood glucose value was measured using a glucose CII Test Wako (manufactured by Wako Pure Chemical Industries, Ltd.). The intensity of hypoglycemic activity was determined by calculating the area under the blood glucose value-time curve (AUC) using a trapezoidal method from the glucose value of 0-8 hours after administering the compound and calculating the rate (%) of the decrease in the AUC of the drug-administered group from that of the control group.

As a reminder, the IC50 is the concentration that inhibits the measured activity by half. Higher therefore signals a need for much substance. At human SGLT2, `COc1ccc(Cc2cc3ccccc3s2)cc1[C@@H]1O[C@H](CO)[C@@H](O)[C@H](O)[C@H]1O` [Example 117] gave an IC50 of 13 nM.

With `COc1ccc([C@@H]2O[C@H](CO)[C@@H](O)[C@H](O)[C@H]2O)cc1Cc1cc2ccccc2s1` [Example 134], the IC50 against human SGLT2 stood at 14 nM. The “Hypoglycemic activity (rate of decrease in blood glucose AUC 0-8 hours versus control group)” value in test [1] was 39%. Taken in the same sequence, the figures for `COc1cc(OC)c([C@@H]2O[C@H](CO)[C@@H](O)[C@H](O)[C@H]2O)cc1Cc1cc2ccccc2s1` [Example 141] were 3.8 nM and 34%. For the compound `OC[C@H]1O[C@@H](c2cc(Cc3cc4ccccc4s3)c(O)cc2O)[C@H](O)[C@@H](O)[C@@H]1O` [Example 142], 21 nM corresponded to half-maximal inhibition against human SGLT2 (IC50). Same read-out and setting: the value for `CCc1ccc(Cc2nc([C@@H]3O[C@H](CO)[C@@H](O)[C@H](O)[C@H]3O)c(Cl)nc2Cl)cc1` [Example 150] was 6.5 nM. The same measure, in the same setting: next, `OC[C@H]1O[C@@H](c2cc(Cc3cc4ccsc4s3)ccc2O)[C@H](O)[C@@H](O)[C@@H]1O` [Example 174]: 6.6 nM.
